Values after ≈ are worked out from the molar mass of the structure shown.
Experiments:
[1] = Metabolic stability in rat hepatocytes (rHep); details: n = 1 or geometric mean of n = 2-3
Kinetic solubility = details: kinetic from dmso stock
Method: Kinetic solubility was measured as described in Comput Aided Mol Des 2015, 29, 795.

[2] = target: Prolyl endopeptidase, Prolyl Oligopeptidase (hPREP) (Homo sapiens (Human), UniProt P48147); assay: hPrep inhibition assay; format: biochemical; details: hPREP 0.6 nM, Z-Gly-Pro-amino-methylcoumarin 50 μM; read-out: PREP IC50
Outline: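 Recombinant human PREP at 0.6 nM final with Z-Gly-Pro-AMC substrate at 50 μM final in Tris-HCl pH 7.5, NaCl, Triton X-100, glutathione; 15 min rt preincubation then 20 min rt reaction in dark. AMC fluorescence (ex 340/em 460 nm); IC50 from one-site dose-response fit of % inhibition.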

[3] = Metabolic stability in human liver microsomes (HLM); details: human
Method: Metabolic stability in HLM was measured as described in J Comput Aided Mol Des 2015, 29, 795.

FAP = FAP (Homo sapiens (Human), UniProt Q12884); assay: hFAP inhibition assay; format: biochemical; details: Ala-Pro-AMC 20 μM, n = 1 or geometric mean n = 2-3
Outline: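 Human FAP (0.48 nM) in 100 mM Tris HCl, 100 mM NaCl, 0.05% Chaps, pH 7.4 was preincubated 15 min at rt in the dark with compounds (10-point, 3-fold series from 50 μM). Substrate was added from a 40 μM solution, then 30 min at rt. Fluorescence read at ex 340/em 460 nm; IC50 from one-site dose-response fit of % inhibition.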

hFAP (M39-A757) = hFAP (M39-A757) (Homo sapiens (Human), UniProt Q12884); assay: hFAP binding assay (surface plasmon resonance); details: SPR, 20° C.; for hFAP Binding assay k(off) / hFAP Binding assay k(on): single cycle kinetics; for Kd: n = 1 or geometric mean n = 2-4
[4] = target: human Fibroblast activation protein alpha (hFAP) (Homo sapiens (Human), UniProt Q12884); assay: hFAP inhibition assay (tight binders); format: biochemical; details: Ala-Pro-AMC 20 μM, n = 1 or geometric mean n = 2-6; note: hFAP 2.4 pM
Method: The plates were read on a PHERAstar® reader with excitation 340 nm and emission 460 nm. Data were analyzed in Genedata Screener®. IC50 values were determined by plotting % inhibition versus log compound concentration and using a one site dose response model.

[5] = Solubility, kinetic solubility, n = 1 or average of n = 2-3
[6] = HLM CLint, n = 1 or average of n = 2-3

Chain of Prolyl endopeptidase, Prolyl Oligopeptidase (hPREP) (P48147 whole entry): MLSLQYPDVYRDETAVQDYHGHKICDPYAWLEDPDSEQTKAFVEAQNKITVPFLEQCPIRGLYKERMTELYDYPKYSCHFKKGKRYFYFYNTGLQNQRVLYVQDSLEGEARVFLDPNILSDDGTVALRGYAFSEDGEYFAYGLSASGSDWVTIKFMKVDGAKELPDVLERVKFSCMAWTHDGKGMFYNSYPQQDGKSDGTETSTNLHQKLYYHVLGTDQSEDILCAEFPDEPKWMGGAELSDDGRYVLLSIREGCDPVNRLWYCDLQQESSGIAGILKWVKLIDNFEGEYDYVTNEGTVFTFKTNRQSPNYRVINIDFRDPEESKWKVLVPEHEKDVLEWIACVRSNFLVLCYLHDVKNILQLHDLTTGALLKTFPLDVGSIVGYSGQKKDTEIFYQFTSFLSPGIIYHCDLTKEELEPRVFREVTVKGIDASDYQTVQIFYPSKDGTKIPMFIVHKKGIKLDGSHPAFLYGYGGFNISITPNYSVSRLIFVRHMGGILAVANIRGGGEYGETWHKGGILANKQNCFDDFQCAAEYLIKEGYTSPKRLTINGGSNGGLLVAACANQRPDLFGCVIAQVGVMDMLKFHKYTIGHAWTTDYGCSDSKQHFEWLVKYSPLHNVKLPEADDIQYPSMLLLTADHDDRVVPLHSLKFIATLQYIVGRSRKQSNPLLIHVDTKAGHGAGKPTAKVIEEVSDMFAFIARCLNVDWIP
Chain of hFAP (M39-A757) (Q12884 39-757): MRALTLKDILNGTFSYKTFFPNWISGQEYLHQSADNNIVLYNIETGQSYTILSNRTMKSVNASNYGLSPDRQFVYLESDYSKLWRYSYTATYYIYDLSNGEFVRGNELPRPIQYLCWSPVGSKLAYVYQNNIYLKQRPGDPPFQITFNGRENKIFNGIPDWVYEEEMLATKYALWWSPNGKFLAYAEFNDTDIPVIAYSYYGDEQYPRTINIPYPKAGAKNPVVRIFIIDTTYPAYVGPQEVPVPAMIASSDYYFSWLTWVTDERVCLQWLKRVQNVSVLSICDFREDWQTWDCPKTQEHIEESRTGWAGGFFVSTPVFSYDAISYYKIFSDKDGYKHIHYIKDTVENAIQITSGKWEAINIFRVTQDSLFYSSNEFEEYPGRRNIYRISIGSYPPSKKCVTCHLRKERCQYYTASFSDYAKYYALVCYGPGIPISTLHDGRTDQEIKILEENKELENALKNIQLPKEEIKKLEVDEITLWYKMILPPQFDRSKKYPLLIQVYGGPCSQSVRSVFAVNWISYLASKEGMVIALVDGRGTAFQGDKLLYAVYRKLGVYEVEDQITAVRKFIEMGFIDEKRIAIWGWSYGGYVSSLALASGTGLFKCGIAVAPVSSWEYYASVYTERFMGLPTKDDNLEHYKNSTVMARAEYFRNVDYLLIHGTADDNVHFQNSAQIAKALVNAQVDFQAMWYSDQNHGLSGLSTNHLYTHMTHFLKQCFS
Chain of human Fibroblast activation protein alpha (hFAP) (Q12884 38-760): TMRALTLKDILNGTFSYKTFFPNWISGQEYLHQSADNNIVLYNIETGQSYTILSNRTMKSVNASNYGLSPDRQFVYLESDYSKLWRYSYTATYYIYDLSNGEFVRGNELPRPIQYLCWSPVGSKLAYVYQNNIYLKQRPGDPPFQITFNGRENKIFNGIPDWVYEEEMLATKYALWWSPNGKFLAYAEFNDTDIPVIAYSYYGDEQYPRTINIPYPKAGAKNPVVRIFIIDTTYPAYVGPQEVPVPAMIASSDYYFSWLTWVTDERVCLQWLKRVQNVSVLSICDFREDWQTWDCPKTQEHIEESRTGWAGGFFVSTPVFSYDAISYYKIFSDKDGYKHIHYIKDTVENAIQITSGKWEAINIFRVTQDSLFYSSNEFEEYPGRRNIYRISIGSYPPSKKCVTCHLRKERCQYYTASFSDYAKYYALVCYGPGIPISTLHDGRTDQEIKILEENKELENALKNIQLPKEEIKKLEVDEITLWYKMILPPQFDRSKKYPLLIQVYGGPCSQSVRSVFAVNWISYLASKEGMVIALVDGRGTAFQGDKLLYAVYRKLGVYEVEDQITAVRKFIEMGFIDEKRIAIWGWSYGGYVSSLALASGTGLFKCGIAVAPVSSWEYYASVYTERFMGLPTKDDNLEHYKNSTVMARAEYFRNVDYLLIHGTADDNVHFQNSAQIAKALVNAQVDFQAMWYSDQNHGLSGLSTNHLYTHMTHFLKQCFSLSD
Chain of FAP (Q12884 38-760): as above

| Compound | rHep CLint [1] | solubility (Kinetic solubility) | IC50 [2] | microsomal CLint [3] | IC50 (FAP; hFAP […]) | hFAP Binding assay k(off) (hFAP (M39-A757)) | hFAP Binding assay k(on) (hFAP (M39-A757)) | Kd (hFAP (M39-A757)) | IC50 [4] | solubility (Kinetic solubility; [5]) | microsomal CLint [3, 6] | IC50 (FAP; hFAP 0.24 nM) |
| --- | --- | --- | --- | --- | --- | --- | --- | --- | --- | --- | --- | --- |
| N#C[C@@H]1CSCN1C(=O)CNC(=O)c1ccnc2ccc(N3CC4(CCC4)C3)cc12 [Example 17, (R)—N-(2-(4-Cyanothiazolidin-3-yl)-2-oxoethyl)-6-(2-azaspiro[3.3]heptan-2-yl)quinoline-4-carboxamide] | 16 μL/min/1E6 | 250 µM (≈ 105 µg/mL) | 160 nM | 18 µL/min/mg | 0.22 nM | 0.00012 s⁻¹ | 8300000 M⁻¹ s⁻¹ | 0.015 nM | 0.085 nM |  |  |  |
| N#C[C@@H]1CSCN1C(=O)CNC(=O)c1ccnc2ccc(N3CC4CCCC4C3)cc12 (stereo partly drawn) [Example 53, N-(2-((R)-4-Cyanothiazolidin-3-yl)-2-oxoethyl)-6-(hexahydrocyclopenta[c]pyrrol-2(1H)-yl)quinoline-4-carboxamide] | 71 μL/min/1E6 |  | 170 nM |  | 0.27 nM | 0.000050 s⁻¹ | 680000 M⁻¹ s⁻¹ | 0.074 nM | 0.18 nM | 2.6 µM (≈ 1.13 µg/mL) | 120 µL/min/mg |  |
| N#C[C@@H]1CSCN1C(=O)CNC(=O)c1ccnc2ccc(N3CCC34CCC4)cc12 [Example 19, (R)—N-(2-(4-Cyanothiazolidin-3-yl)-2-oxoethyl)-6-(1-azaspiro[3.3]heptan-1-yl)quinoline-4-carboxamide] | 63 μL/min/1E6 | 480 µM (≈ 202 µg/mL) | 160 nM | 190 µL/min/mg | 0.66 nM | 0.000066 s⁻¹ | 430000 M⁻¹ s⁻¹ | 0.15 nM | 0.38 nM |  |  |  |
| N#C[C@@H]1CSCN1C(=O)CNC(=O)c1ccnc2ccc(N3CCOCC34CCC4)cc12 [Example 104, (R)—N-(2-(4-cyanothiazolidin-3-yl)-2-oxoethyl)-6-(8-oxa-5-azaspiro[3.5]nonan-5-yl)quinoline-4-carboxamide] | 28 μL/min/1E6 | 930 µM (≈ 420 µg/mL) | 650 nM | 130 µL/min/mg | 0.21 nM | 0.000061 s⁻¹ | 3000000 M⁻¹ s⁻¹ | 0.02 nM | 0.081 nM |  |  |  |
| CC1(C)CCCN1c1ccc2nccc(C(=O)NCC(=O)N3CSC[C@H]3C#N)c2c1 [Example 57, (R)—N-(2-(4-Cyanothiazolidin-3-yl)-2-oxoethyl)-6-(2,2-dimethylpyrrolidin-1-yl)quinoline-4-carboxamide] | >300 μL/min/1E6 |  | 160 nM |  | 0.26 nM | 0.00018 s⁻¹ | 8000000 M⁻¹ s⁻¹ | 0.022 nM | 0.098 nM | 150 µM (≈ 63.5 µg/mL) | > 300 µL/min/mg |  |
| N#C[C@@H]1CSCN1C(=O)CNC(=O)c1ccnc2ccc(N3CC(c4ccc(F)cc4)C3)cc12 [Example 185, (R)—N-(2-(4-Cyanothiazolidin-3-yl)-2-oxoethyl)-6-(3-(4-fluorophenyl)-azetidin-1-yl)quinoline-4-carboxamide] | 15 μL/min/1E6 |  | 130 nM |  | 0.23 nM |  |  | 0.043 nM | 0.12 nM | 7 µM (≈ 3.33 µg/mL) | 58 µL/min/mg |  |
| C[C@H]1COCCCN1c1ccc2nccc(C(=O)NCC(=O)N3CSC[C@H]3C#N)c2c1 [Example 63, N-(2-((R)-4-Cyanothiazolidin-3-yl)-2-oxoethyl)-6-((S)-3-methyl-1,4-oxazepan-4-yl)quinoline-4-carboxamide] | 30 μL/min/1E6 |  | 400 nM |  | 0.33 nM | 0.000059 s⁻¹ | 4100000 M⁻¹ s⁻¹ | 0.03 nM | 0.19 nM | 690 µM (≈ 303 µg/mL) | 180 µL/min/mg |  |
| Cc1ccc(C2CN(c3ccc4nccc(C(=O)NCC(=O)N5CSC[C@H]5C#N)c4c3)C2)cc1 [Example 183, (R)—N-(2-(4-Cyanothiazolidin-3-yl)-2-oxoethyl)-6-(3-(p-tolyl)azetidin-1-yl)quinoline-4-carboxamide] | 19 μL/min/1E6 |  | 140 nM |  | 0.33 nM |  |  | 0.086 nM | 0.19 nM | 19 µM (≈ 8.96 µg/mL) | 49 µL/min/mg |  |
| N#C[C@@H]1CSCN1C(=O)CNC(=O)c1ccnc2ccc(N3C[C@@H]4CC[C@H]3C4)cc12 (mixture of isomers) [Example 210, 6-((1RS,4SR)-2-Azabicyclo[2.2.1]heptan-2-yl)-N-(2-((R)-4-cyanothiazolidin-3-yl)-2-oxoethyl)quinoline-4-carboxamide] | 250 μL/min/1E6 |  | 220 nM |  |  | 0.000098 s⁻¹ | 3800000 M⁻¹ s⁻¹ | 0.026 nM | 0.18 nM | 150 µM | 220 µL/min/mg | 0.44 nM |
| C[C@H]1CC(F)(F)CCN1c1ccc2nccc(C(=O)NCC(=O)N3CSC[C@H]3C#N)c2c1 (mixture of isomers) [Example 44, N-(2-((R)-4-Cyanothiazolidin-3-yl)-2-oxoethyl)-6-((RS)-4,4-difluoro-2-methylpiperidin-1-yl)quinoline-4-carboxamide] | 160 μL/min/1E6 |  | 540 nM |  |  | 0.000072 s⁻¹ | 1700000 M⁻¹ s⁻¹ | 0.042 nM | 0.074 nM | 140 µM | 220 µL/min/mg | 0.22 nM |
| N#C[C@@H]1CSCN1C(=O)CNC(=O)c1ccnc2ccc(N3C[C@@H]4[C@H](C3)[C@H]4C(F)(F)F)cc12 [Example 208, N-(2-((R)-4-Cyanothiazolidin-3-yl)-2-oxoethyl)-6-((1R,5S,6R)-6-(trifluoromethyl)-3-azabicyclo[3.1.0]hexan-3-yl)quinoline-4-carboxamide] | 12 μL/min/1E6 |  | 210 nM |  | 0.22 nM | 0.00026 s⁻¹ | 5600000 M⁻¹ s⁻¹ | 0.046 nM | 0.11 nM | 1.6 µM (≈ 0.761 µg/mL) | 72 µL/min/mg |  |
| N#C[C@@H]1CSCN1C(=O)CNC(=O)c1ccnc2ccc(N3CC(F)(c4ccccc4)C3)cc12 [Example 182, (R)—N-(2-(4-Cyanothiazolidin-3-yl)-2-oxoethyl)-6-(3-fluoro-3-phenyl-azetidin-1-yl)quinoline-4-carboxamide] | 26 μL/min/1E6 |  | 210 nM |  | 0.41 nM | 0.000042 s⁻¹ | 250000 M⁻¹ s⁻¹ | 0.093 nM | 0.19 nM | 230 µM (≈ 109 µg/mL) | 100 µL/min/mg |  |

— patent US20230312550A1, “N-(2-(4-CYANOTHIAZOLIDIN-3-YL)-2-OXOETHYL)-QUINOLINE-4-CARBOXAMIDES” (AstraZeneca AB, priority 2020, published 2023)
